A word on the EC50: it is the concentration at which the effect is half-maximal. As a reminder, the IC50 is the concentration that inhibits the measured activity by half.

33 compounds from patent publication US10669272B2, “Substituted naphthyridinone compounds useful as T cell activators” (BRISTOL-MYERS SQUIBB COMPANY, priority 2018, dated 2020) can be followed below.

Like-named read-outs stand apart in the source and are kept apart here.

Test [1] deals with Human venous whole blood. The experiment in a line: Human whole blood IFN-γ assay.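 Note: blood from healthy donors exposed to compound for 1 h before stimulation with anti-CD3 and anti-CD28 at 1 µg/mL each, IFN-γ quantified in supernatant by AlphaLISA.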 The following applies: human whole blood, normalized to 3 μM reference compound with anti-CD3 plus anti-CD28 as 100% activation, read-out: INFg Whole Blood Normalized Agonist EC50. The class given is cell-based.
Procedure: Human Whole Blood IFN-γ Assay
Human venous whole blood (22.5 μL per well), obtained from healthy donors, was pre-treated with compounds for one hour at 37° C. in a humidified 95% air/5% CO2 incubator. The blood was stimulated with 2.5 μL anti-human CD3 and anti-CD28 mAb at a final concentration of 1 μg/mL each for 24 hours at 37° C. IFN-γ in the supernatants was measured using AlphLISA kit (Cat # AL217).
Test [2] concerns the target T1, human DGKα (Homo sapiens, UniProt P23743).
T1 construct: TVMV protease cleavage site (C); Hexa-His (C); made in house; host or cells: Sf9 insect cells (baculovirus, Bac-to-Bac)
The experiment in a line: DGKα LIPGLO assay (extruded liposome substrate), in vitro DGK inhibition. The class given is biochemical. The conditions noted are these: liposome (LIPGLO) assay; read-out: DGKa LIPGLO IC50.

Test [3] addresses T2, human DGKζ (Homo sapiens, UniProt Q13574).
T2 construct: TVMV protease cleavage site (C); Hexa-His (C); made in house; host or cells: Sf9 insect cells (baculovirus, Bac-to-Bac)
The experiment in a line: DGKζ LIPGLO assay (extruded liposome substrate), in vitro DGK inhibition. It is filed as biochemical. The conditions noted are these: liposome (LIPGLO) assay; read-out: DGKz LIPGLO IC50.

T2 sequence (Q13574 with tags, fused parts or gaps isoform Q13574-4): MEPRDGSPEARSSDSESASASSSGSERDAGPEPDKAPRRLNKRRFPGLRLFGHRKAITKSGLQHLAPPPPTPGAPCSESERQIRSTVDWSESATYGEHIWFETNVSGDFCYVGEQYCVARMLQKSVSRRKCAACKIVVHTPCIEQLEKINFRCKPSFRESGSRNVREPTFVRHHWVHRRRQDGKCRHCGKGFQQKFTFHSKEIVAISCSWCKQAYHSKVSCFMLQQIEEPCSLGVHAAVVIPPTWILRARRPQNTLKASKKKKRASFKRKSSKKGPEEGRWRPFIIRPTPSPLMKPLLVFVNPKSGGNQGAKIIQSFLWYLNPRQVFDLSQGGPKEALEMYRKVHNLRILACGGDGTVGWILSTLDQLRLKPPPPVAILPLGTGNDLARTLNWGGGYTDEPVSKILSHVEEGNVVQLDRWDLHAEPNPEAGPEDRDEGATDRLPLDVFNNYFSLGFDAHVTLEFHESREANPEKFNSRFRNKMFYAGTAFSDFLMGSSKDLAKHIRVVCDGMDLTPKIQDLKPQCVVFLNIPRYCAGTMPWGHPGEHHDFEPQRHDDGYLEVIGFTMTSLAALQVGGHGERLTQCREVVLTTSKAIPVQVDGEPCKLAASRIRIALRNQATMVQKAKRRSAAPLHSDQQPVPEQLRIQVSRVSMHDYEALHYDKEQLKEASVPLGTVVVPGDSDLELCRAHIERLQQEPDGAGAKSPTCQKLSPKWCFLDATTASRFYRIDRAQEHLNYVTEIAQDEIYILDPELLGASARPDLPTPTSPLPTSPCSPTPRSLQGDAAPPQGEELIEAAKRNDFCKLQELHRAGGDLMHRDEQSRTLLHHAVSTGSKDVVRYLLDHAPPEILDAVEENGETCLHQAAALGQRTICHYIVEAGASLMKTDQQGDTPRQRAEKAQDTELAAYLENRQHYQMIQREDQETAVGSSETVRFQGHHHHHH
T1 sequence (P23743 with tags, fused parts or gaps): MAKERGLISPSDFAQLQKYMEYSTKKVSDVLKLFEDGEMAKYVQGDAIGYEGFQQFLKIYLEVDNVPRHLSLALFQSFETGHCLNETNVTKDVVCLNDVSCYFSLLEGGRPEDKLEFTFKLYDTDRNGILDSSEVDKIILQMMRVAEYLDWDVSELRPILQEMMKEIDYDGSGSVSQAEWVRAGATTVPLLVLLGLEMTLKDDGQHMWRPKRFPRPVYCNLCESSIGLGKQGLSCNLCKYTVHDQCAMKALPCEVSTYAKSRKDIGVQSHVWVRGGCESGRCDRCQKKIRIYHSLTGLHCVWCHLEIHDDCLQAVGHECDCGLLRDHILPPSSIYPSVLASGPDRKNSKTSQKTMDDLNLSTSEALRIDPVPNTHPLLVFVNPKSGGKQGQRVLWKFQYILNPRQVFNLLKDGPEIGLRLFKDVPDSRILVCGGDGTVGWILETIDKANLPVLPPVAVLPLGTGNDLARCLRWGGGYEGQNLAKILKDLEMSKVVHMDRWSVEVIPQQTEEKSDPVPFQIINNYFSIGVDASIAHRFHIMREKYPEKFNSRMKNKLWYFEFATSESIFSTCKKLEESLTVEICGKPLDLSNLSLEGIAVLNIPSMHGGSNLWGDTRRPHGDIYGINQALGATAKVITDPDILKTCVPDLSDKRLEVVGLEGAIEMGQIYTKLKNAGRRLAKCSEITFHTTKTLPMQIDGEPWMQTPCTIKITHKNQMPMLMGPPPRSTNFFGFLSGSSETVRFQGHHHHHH

Consider `CC(c1cccc2ncccc12)N1C[C@H](C)N(c2cc(=O)n(C)c3ccc(C#N)nc23)C[C@H]1C` (single isomer, unassigned) [Example 639], for which, in test [1], the EC50 amounted to 20 µM. The IC50 was 98 µM in test [2] and 18 µM in test [3].
The like results for `CC(c1ccc(F)cn1)N1C[C@H](C)N(c2cc(=O)n(C)c3ccc(C#N)nc23)C[C@H]1C` (single isomer, unassigned) [Example 640] were, in that order, 1.6 µM, 0.036 µM and 3.9 µM.
Regarding `CC(c1ccc(F)cn1)N1C[C@H](C)N(c2cc(=O)n(C)c3ccc(C#N)nc23)C[C@H]1C` (single isomer, unassigned) [Example 641], the EC50 in test [1] came out at 5.9 µM. The IC50 in test [2] was 1.7 µM; in test [3] it was 15 µM.
Regarding `CC(c1ccc(C(F)(F)F)cn1)N1C[C@H](C)N(c2cc(=O)n(C)c3ccc(C#N)nc23)C[C@H]1C` (single isomer, unassigned) [Example 643], the EC50 in test [1] was 5.3 µM. Moreover, the IC50 in test [2] was determined as 0.31 µM; in test [3], 1.6 µM.
The like results for `COc1ccc(C(C)N2C[C@H](C)N(c3cc(=O)n(C)c4ccc(C#N)nc34)C[C@H]2C)nc1` (single isomer, unassigned) [Example 644] were, in that order, 3.8 µM, 0.16 µM and 0.5 µM.
As to `COc1ccc(C(C)N2C[C@H](C)N(c3cc(=O)n(C)c4ccc(C#N)nc34)C[C@H]2C)nc1` (single isomer, unassigned) [Example 645], the 50% effective concentration (EC50) in test [1] was determined as 17 µM. Moreover, the IC50 in test [2] came out at 1.9 µM; in test [3] it was 18 µM.
For the compound `CC(c1nc(C2CC2)cs1)N1C[C@H](C)N(c2cc(=O)n(C)c3ccc(C#N)nc23)C[C@H]1C` (single isomer, unassigned) [Example 646], the concentration for a half-maximal effect (EC50) in test [1] (Homo sapiens, 24 h) came to 6.7 µM. Also, the IC50 in test [2] amounted to 1.6 µM; in test [3], 2.7 µM.
Regarding `CC(c1nc(C2CC2)cs1)N1C[C@H](C)N(c2cc(=O)n(C)c3ccc(C#N)nc23)C[C@H]1C` (single isomer, unassigned) [Example 647], the EC50 in test [1] was found to be 5.2 µM. The IC50 in test [2] is 0.22 µM; in test [3] it was 0.075 µM.
Consider `Cc1cc(C(C)N2C[C@H](C)N(c3cc(=O)n(C)c4ccc(C#N)nc34)C[C@H]2C)no1` (single isomer, unassigned) [Example 649], for which the EC50 in test [1] (Homo sapiens, 24 h) is 20 µM. Also, the IC50 amounted to 3.6 µM in test [2] and 3.4 µM in test [3].
Turning to `CC(c1ccc2nccnc2c1)N1C[C@H](C)N(c2cc(=O)n(C)c3ccc(C#N)nc23)C[C@H]1C` (single isomer, unassigned) [Example 650], in test [1], the EC50 came out at 0.29 µM. In addition, the figures for the IC50 in test [2] and in test [3] were 2.5 µM and 0.011 µM, respectively.
For `CC(c1ccc2nccnc2c1)N1C[C@H](C)N(c2cc(=O)n(C)c3ccc(C#N)nc23)C[C@H]1C` (single isomer, unassigned) [Example 651], in that order: 20 µM, 50 µM and 0.95 µM.
With `CC(c1ccc2c(c1)OC(F)(F)O2)N1C[C@H](C)N(c2cc(=O)n(C)c3ccc(C#N)nc23)C[C@H]1C` (single isomer, unassigned) [Example 654], in test [1], the half-maximal effective concentration (EC50) stood at 0.4 µM. Besides, the concentration for half-maximal inhibition (IC50) in test [2] stood at 2 µM; in test [3], 0.13 µM.
The like results for `CC(c1ccc2c(c1)OC(F)(F)O2)N1C[C@H](C)N(c2cc(=O)n(C)c3ccc(C#N)nc23)C[C@H]1C` (single isomer, unassigned) [Example 655] were, in that order, 6.6 µM, 4.2 µM and 1.3 µM.
As to `COc1cccc(C(c2ccc(F)cc2)N2C[C@H](C)N(c3cc(=O)n(C)c4ccc(C#N)nc34)C[C@H]2C)c1` (single isomer, unassigned) [Example 660], in test [1] (Homo sapiens, 24 h), the EC50 came out at 0.66 µM. For the same compound, the 50% inhibitory concentration (IC50) in test [2] came out at 17 µM; in test [3], 0.51 µM.
`COc1cccc(C(c2ccc(F)cc2)N2C[C@H](C)N(c3cc(=O)n(C)c4ccc(C#N)nc34)C[C@H]2C)c1` (single isomer, unassigned) [Example 661]: the half-maximal effective concentration (EC50) in test [1] came out at 1 µM. Further, the concentration for half-maximal inhibition (IC50) was determined as 4.1 µM in test [2] and 1.7 µM in test [3].
As for `C[C@@H]1CN(c2cc(=O)n(C)c3ccc(C#N)nc23)[C@@H](C)CN1C(c1ccc(F)cc1)c1ccc(N2CCOCC2)cc1` (single isomer, unassigned) [Example 662], the EC50 in test [1] (Homo sapiens, 24 h) was 20 µM. Further, the IC50 in test [2] and in test [3] was more than 250 µM in each case.
`C[C@@H]1CN(c2cc(=O)n(C)c3ccc(C#N)nc23)[C@@H](C)CN1C(c1ccc(F)cc1)c1ccc(N2CCOCC2)cc1` (single isomer, unassigned) [Example 663]: in test [1], the 50% effective concentration (EC50) is 20 µM. Also, the results for the concentration for half-maximal inhibition (IC50) in test [2] and in test [3] were more than 250 µM and 24 µM, respectively.
For `C[C@@H]1CN(c2cc(=O)n(C)c3ccc(C#N)nc23)[C@@H](C)CN1C(c1ccccc1)c1ccc(Cl)cc1` (single isomer, unassigned) [Example 670], in that order: 2.8 µM, 1.1 µM and 3.6 µM.
The like results for `C[C@@H]1CN(c2cc(=O)n(C)c3ccc(C#N)nc23)[C@@H](C)CN1C(c1ccccc1)c1ccc(Cl)cc1` (single isomer, unassigned) [Example 671] were, in that order, 1.2 µM, 3.3 µM and 3.2 µM.
The like results for `C[C@@H]1CN(c2cc(=O)n(C)c3ccc(C#N)nc23)[C@@H](C)CN1C(c1ccc(F)cc1)c1cccc(N2CCOCC2)c1` (single isomer, unassigned) [Example 672] were, in that order, 9.5 µM, 92 µM and 1.7 µM.
On to `C[C@@H]1CN(c2cc(=O)n(C)c3ccc(C#N)nc23)[C@@H](C)CN1C(c1ccc(F)cc1)c1cccc(N2CCOCC2)c1` (single isomer, unassigned) [Example 673], for which the half-maximal effective concentration (EC50) in test [1] was 1.3 µM. Also, the figures for the half-maximal inhibitory concentration (IC50) in test [2] and in test [3] were 4.7 µM and 2.3 µM, respectively.
As to `C[C@@H]1CN(c2cc(=O)n(C)c3ccc(C#N)nc23)[C@@H](C)CN1C(c1ccc(F)cc1)c1ccc(C(F)(F)F)cn1` (single isomer, unassigned) [Example 680], in test [1] (Homo sapiens, 24 h), the concentration giving a half-maximal response (EC50) came to 0.48 µM. Besides, the IC50 in test [2] turned out to be 1.2 µM; in test [3] it was 2.5 µM.
In the case of `C[C@@H]1CN(c2cc(=O)n(C)c3ccc(C#N)nc23)[C@@H](C)CN1C(c1ccc(F)cc1)c1ccc(C(F)(F)F)cn1` (single isomer, unassigned) [Example 681], the EC50 in test [1] was 0.27 µM. For the same compound, the IC50 in test [2] is 0.1 µM; in test [3], 0.35 µM.
For `C[C@@H]1CN(c2cc(=O)n(C)c3ccc(C#N)nc23)[C@@H](C)CN1C(c1ccccn1)c1ccc(F)cc1F` (single isomer, unassigned) [Example 683], in that order: 1.5 µM, 0.47 µM and 23 µM.
For `C[C@@H]1CN(c2cc(=O)n(C)c3ccc(C#N)nc23)[C@@H](C)CN1C(c1ccc(F)cn1)c1ccc(F)cc1F` (single isomer, unassigned) [Example 684], in that order: 0.35 µM, 0.0069 µM and 0.49 µM.
The like results for `COc1ccc(C(c2cccc(F)c2)N2C[C@H](C)N(c3cc(=O)n(C)c4ccc(C#N)nc34)C[C@H]2C)nc1` (single isomer, unassigned) [Example 686] were, in that order, 0.56 µM, 4.3 µM and 3.4 µM.
Turning to `C[C@@H]1CN(c2cc(=O)n(C)c3ccc(C#N)nc23)[C@@H](C)CN1C(c1ccc(F)cc1)c1cccc(S(C)(=O)=O)c1` (single isomer, unassigned) [Example 688], the EC50 in test [1] is 13 µM. Further, the concentration for half-maximal inhibition (IC50) in test [2] came to 83 µM; in test [3], 24 µM.
In the case of `C[C@@H]1CN(c2cc(=O)n(C)c3ccc(C#N)nc23)[C@@H](C)CN1C(c1ccc(F)cc1)c1cccc(S(C)(=O)=O)c1` (single isomer, unassigned) [Example 689], the concentration for a half-maximal effect (EC50) in test [1] stood at 1.5 µM. Besides, the IC50 in test [2] stood at 7.6 µM; in test [3], 3 µM.
The like results for `C[C@@H]1CN(c2cc(=O)n(C)c3ccc(C#N)nc23)[C@@H](C)CN1C(c1ccc(F)cc1)c1c(F)cc(F)cc1F` (single isomer, unassigned) [Example 692] were, in that order, 0.68 µM, 0.81 µM and 2.5 µM.
For `C[C@@H]1CN(c2cc(=O)n(C)c3ccc(C#N)nc23)[C@@H](C)CN1C(c1ccc(F)cc1)c1c(F)cc(F)cc1F` (single isomer, unassigned) [Example 693], in that order: 0.29 µM, 2.2 µM and 0.57 µM.
Consider `C[C@@H]1CN(c2cc(=O)n(C)c3ccc(C#N)nc23)[C@@H](C)CN1C(c1ccc(F)cc1)c1cccc2ccnn12` (single isomer, unassigned) [Example 695], for which the concentration for a half-maximal effect (EC50) in test [1] (Homo sapiens, 24 h) is 4.9 µM. The IC50 was found to be 12 µM in test [2] and 0.28 µM in test [3].
Regarding `C[C@@H]1CN(c2cc(=O)n(C)c3ccc(C#N)nc23)[C@@H](C)CN1C(c1ccc(F)cc1)c1cccc(C(F)F)n1` (single isomer, unassigned) [Example 696], the half-maximal effective concentration (EC50) in test [1] was found to be 0.42 µM. Further, the IC50 in test [2] and in test [3] was 0.24 µM each time.
`C[C@@H]1CN(c2cc(=O)n(C)c3ccc(C#N)nc23)[C@@H](C)CN1C(c1ccc(F)cc1)c1cccc(C(F)F)n1` (single isomer, unassigned) [Example 697]: the EC50 in test [1] is 0.2 µM. Besides, the 50% inhibitory concentration (IC50) in test [2] is 0.74 µM; in test [3], 0.059 µM.
